In paper PMC5656653, “Evaluation of Ga-DOTA-(D-Asp)n as bone imaging agents: D-aspartic acid peptides as carriers to bone” (Scientific Reports, 2017):
Read-outs that look alike come from different tables or passages of the source. Where a SMILES comes first, the peptide text is derived from it. [ ]: non-standard residue; d: D form. The star is where a group is joined. DOTA = O=C(O)CN1CCN(CC(=O)O)CCN(CC(=O)*)CCN(CC(=O)O)CC1

Assays:
[1] = Biodistribution experiments in normal mice after i.v. injection; type: in vivo; conditions: i.v.; for tissue uptake dose at 10 min / tissue uptake dose at 1 h / tissue uptake dose at 3 h: male, ddY, mouse, in vivo, iv, total radioactivity; for tissue uptake dose at 10 min / tissue uptake dose at 1 h / tissue uptake dose at 3 h / F/B ratio (Femur:blood ratio): mice, mean (SD)
In short: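 Male ddY mice (6 weeks, 27–32 g) received tracer i.v. (37–740 kBq/100 μL); 4–5 per group sacrificed at 10, 60 and 180 min. Weighed tissues and whole left femur (bone) gamma-counted with background and decay correction.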

[2] = Urine analyses by RP-HPLC after i.v. injection; type: in vivo; conditions: mice, urine from bladder at 1 h post-injection
Protocol: ^67Ga-DOTA-(L-Asp)14 was prepared according to a method described previously. ^67Ga-DOTA-(L-Asp)14 or ^67Ga-DOTA-(D-Asp)14 solution (370 kBq / 200 μL) was intravenously injected to 6-week-old male ddY mice. At 1 h post-injection, mice were sacrificed and their […] were taken from the bladders. After ultrafiltration (Microcon-30, Merck KGaA), the filtrate samples were analyzed by RP-HPLC at a flow rate of 1 mL/min with a gradient mobile phase from water containing 0.1% TFA to 20% methanol in water containing 0.1% TFA for 20 min.

## O=C(O)C[C@@H](NC(=O)[C@@H](CC(=O)O)NC(=O)[C@@H](CC(=O)O)NC(=O)[C@@H](CC(=O)O)NC(=O)[C@@H](CC(=O)O)NC(=O)[C@@H](CC(=O)O)NC(=O)[C@@H](CC(=O)O)NC(=O)[C@@H](CC(=O)O)NC(=O)[C@@H](CC(=O)O)NC(=O)[C@@H](CC(=O)O)NC(=O)[C@@H](CC(=O)O)NC(=O)[C@@H](CC(=O)O)NC(=O)[C@@H](CC(=O)O)NC(=O)[C@@H](CC(=O)O)NC(=O)CN1CCN(CC(=O)O)CCN(CC(=O)O)CCN(CC(=O)O)CC1)C(=O)O [^67Ga-DOTA-(D-Asp)14, metal not drawn] ({DOTA}-[dD][dD][dD][dD][dD][dD][dD][dD][dD][dD][dD][dD][dD][dD]-OH)
[1]; 10 min after injection, footnote b, read-out: Biodistribution of radioactivity, Stomach
  tissue uptake dose at 10 min: 0.28 %ID
[1]; 10 min after injection, read-out: Biodistribution of radioactivity, Blood
  tissue uptake dose at 10 min: 2.46 %ID
[1]; 10 min after injection, read-out: Biodistribution of radioactivity, Bone (Femur)
  tissue uptake dose at 10 min: 11.9 %ID
[1]; 10 min after injection, read-out: Biodistribution of radioactivity, Brain
  tissue uptake dose at 10 min: 0.06 %ID
[1]; 10 min after injection, read-out: Biodistribution of radioactivity, Heart
  tissue uptake dose at 10 min: 0.94 %ID
[1]; 10 min after injection, read-out: Biodistribution of radioactivity, Kidney
  tissue uptake dose at 10 min: 8.15 %ID
[1]; 10 min after injection, read-out: Biodistribution of radioactivity, Large-intestine
  tissue uptake dose at 10 min: 0.4 %ID
[1]; 10 min after injection, read-out: Biodistribution of radioactivity, Liver
  tissue uptake dose at 10 min: 0.51 %ID
[1]; 10 min after injection, read-out: Biodistribution of radioactivity, Lung
  tissue uptake dose at 10 min: 1.75 %ID
[1]; 10 min after injection, read-out: Biodistribution of radioactivity, Muscle
  tissue uptake dose at 10 min: 0.77 %ID
[1]; 10 min after injection, read-out: Biodistribution of radioactivity, Pancreas
  tissue uptake dose at 10 min: 0.88 %ID
[1]; 10 min after injection, read-out: Biodistribution of radioactivity, Small-intestine
  tissue uptake dose at 10 min: 0.55 %ID
[1]; 10 min after injection, read-out: Biodistribution of radioactivity, Spleen
  tissue uptake dose at 10 min: 0.48 %ID
[1]; 60 min after injection, footnote b, read-out: Biodistribution of radioactivity, Stomach
  tissue uptake dose at 1 h: 0.07 %ID
[1]; 60 min after injection, read-out: Biodistribution of radioactivity, Blood
  tissue uptake dose at 1 h: 0.09 %ID
[1]; 60 min after injection, read-out: Biodistribution of radioactivity, Bone (Femur)
  tissue uptake dose at 1 h: 13 %ID
[1]; 60 min after injection, read-out: Biodistribution of radioactivity, Brain
  tissue uptake dose at 1 h: 0.01 %ID
[1]; 60 min after injection, read-out: Biodistribution of radioactivity, Heart
  tissue uptake dose at 1 h: 0.18 %ID
[1]; 60 min after injection, read-out: Biodistribution of radioactivity, Kidney
  tissue uptake dose at 1 h: 1.21 %ID
[1]; 60 min after injection, read-out: Biodistribution of radioactivity, Large-intestine
  tissue uptake dose at 1 h: 0.1 %ID
[1]; 60 min after injection, read-out: Biodistribution of radioactivity, Liver
  tissue uptake dose at 1 h: 0.15 %ID
[1]; 60 min after injection, read-out: Biodistribution of radioactivity, Lung
  tissue uptake dose at 1 h: 0.28 %ID
[1]; 60 min after injection, read-out: Biodistribution of radioactivity, Muscle
  tissue uptake dose at 1 h: 0.16 %ID
[1]; 60 min after injection, read-out: Biodistribution of radioactivity, Pancreas
  tissue uptake dose at 1 h: 0.27 %ID
[1]; 60 min after injection, read-out: Biodistribution of radioactivity, Small-intestine
  tissue uptake dose at 1 h: 0.18 %ID
[1]; 60 min after injection, read-out: Biodistribution of radioactivity, Spleen
  tissue uptake dose at 1 h: 0.12 %ID
[1]; 180 min after injection, footnote b, read-out: Biodistribution of radioactivity, Stomach
  tissue uptake dose at 3 h: 0.06 %ID
[1]; 180 min after injection, read-out: Biodistribution of radioactivity, Blood
  tissue uptake dose at 3 h: 0.03 %ID
[1]; 180 min after injection, read-out: Biodistribution of radioactivity, Bone (Femur)
  tissue uptake dose at 3 h: 14.8 %ID
[1]; 180 min after injection, read-out: Biodistribution of radioactivity, Brain
  tissue uptake dose at 3 h: 0.01 %ID
[1]; 180 min after injection, read-out: Biodistribution of radioactivity, Heart
  tissue uptake dose at 3 h: 0.11 %ID
[1]; 180 min after injection, read-out: Biodistribution of radioactivity, Kidney
  tissue uptake dose at 3 h: 0.54 %ID
[1]; 180 min after injection, read-out: Biodistribution of radioactivity, Large-intestine
  tissue uptake dose at 3 h: 0.2 %ID
[1]; 180 min after injection, read-out: Biodistribution of radioactivity, Liver
  tissue uptake dose at 3 h: 0.05 %ID
[1]; 180 min after injection, read-out: Biodistribution of radioactivity, Lung
  tissue uptake dose at 3 h: 0.03 %ID
[1]; 180 min after injection, read-out: Biodistribution of radioactivity, Muscle
  tissue uptake dose at 3 h: 0.16 %ID
[1]; 180 min after injection, read-out: Biodistribution of radioactivity, Pancreas
  tissue uptake dose at 3 h: 0.14 %ID
[1]; 180 min after injection, read-out: Biodistribution of radioactivity, Small-intestine
  tissue uptake dose at 3 h: 0.12 %ID
[1]; 180 min after injection, read-out: Biodistribution of radioactivity, Spleen
  tissue uptake dose at 3 h: 0.12 %ID
[1]; 10 min after injection
  F/B ratio (Femur:blood ratio): 4.90 (0.70)
[1]; 60 min after injection
  F/B ratio (Femur:blood ratio): 180.99 (91.94)
[1]; 180 min after injection
  F/B ratio (Femur:blood ratio): 526.37 (130.49)
[1]; normal mice
  Accumulation of radioactivity in bone (in words): high accumulation and retention of radioactivity in bone
  Radioactivity in the kidneys (in words): extremely low accumulation of radioactivity in the kidneys
[2]
  Ratio of the intact complex in urine: 85.8 ± 17.4%
